{"source": "patent US20040157268A1", "about": "“Conformational assays to detect binding to membrane spanning, signal-transducing proteins” (priority 2001, published 2004)", "key": {"FM-β2AR [1]": {"target": "T1, FM-β2AR (Homo sapiens, UniProt P07550)", "T1 sequence (P07550 whole entry)": "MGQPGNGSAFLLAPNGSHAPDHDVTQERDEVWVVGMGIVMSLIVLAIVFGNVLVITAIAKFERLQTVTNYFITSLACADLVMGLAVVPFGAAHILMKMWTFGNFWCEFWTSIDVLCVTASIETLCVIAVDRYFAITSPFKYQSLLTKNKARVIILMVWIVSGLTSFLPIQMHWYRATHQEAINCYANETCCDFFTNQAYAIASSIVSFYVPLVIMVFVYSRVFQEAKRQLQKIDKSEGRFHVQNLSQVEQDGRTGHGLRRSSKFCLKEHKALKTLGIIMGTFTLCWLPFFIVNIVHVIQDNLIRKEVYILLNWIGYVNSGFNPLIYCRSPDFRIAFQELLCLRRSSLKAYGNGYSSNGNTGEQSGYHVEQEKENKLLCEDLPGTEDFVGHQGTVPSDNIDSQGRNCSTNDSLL", "test": "Quenching of FM-β2AR fluorescence (KI, oxyl-NHS, nitroxide fatty acids), Stern-Volmer", "format": "biochemical", "parameters": "made in house", "conditions": "for quenching constant Ksv (nitroxide fatty acids): total lipid constant with stearic acid, n=3"}, "FM-β2AR [2]": {"target": "T1, FM-β2AR", "test": "Fluorescence lifetime analysis of FM-β2AR (frequency domain)", "format": "biochemical", "parameters": "made in house", "source_text": "Fluorescence lifetime analysis of fluorescein labeled β2AR. […] The instrument covered a wide frequency range (4-5000 MHz), which allowed detection of lifetimes ranging from several nanoseconds to a few picoseconds. Samples were placed in a 10-mm path-length cuvette. The excitation was provided by the frequency-doubled output of a cavity-dumped pyridine-2 dye laser tuned at 370 nm synchronously pumped by a mode-locked argon ion laser. Sample emission was filtered through Corning 3-72 and 4-96 filters.\nThe governing equations for the time-resolved intensity decay data were assumed to be a sum of discrete exponentials as in I(t)=IoΣiαie^t/τ^i, where I(t) is the intensity decay, αi is the amplitude (pre-exponential factor) and τi is the fluorescence lifetime of the i-th discrete component; or a sum of Gaussian distribution functions as in the equation I(t)=IoΣiαiτe^t/τ and [formula]\nIn the frequency domain, the measured quantities at each frequency ω, are the phase shift (Øω) and demodulation factor (mω) of the emitted light versus the reference light.\nFractional intensity, amplitude, and lifetime parameters were recovered by a non-linear least squares procedure using the software developed at the Center for Fluorescence Spectroscopy. The measured data were compared with calculated values (Øcω,mcω) and the goodness of fit was characterized by [formula]\nwhere ν is the number of degrees of freedom and δØ and δm are the uncertainties in the measured phase and modulation values, respectively. The sum extends over all frequencies (ω)."}, "FM-β2AR [3]": {"target": "T1, FM-β2AR", "test": "Fluorescence intensity of FM-β2AR (fluorescein maleimide at Cys265), time course", "conditions": "ligand added to FM-β2AR, in words"}, "FM-β2AR [4]": {"test_system": "FM-β2AR", "test": "Quenching of FM-β2AR fluorescence (KI, oxyl-NHS, nitroxide fatty acids), Stern-Volmer", "format": "biochemical, human", "conditions": "ISO-induced change in fluorescence with quencher vs without; 250 mM KI vs 250 mM KCl; Oxyl-NHS bound to K224 in TM5; ALP reversal as measure; n=3"}, "[5]": {"conditions": "Gaussian lifetime distribution, long component"}, "[6]": {"conditions": "Gaussian lifetime distribution, short component"}, "[7]": {"conditions": "fit to discrete exponential functions"}}}
{"smiles": "CCCCCCCCCCCCCC1(CCCC(=O)O)OCC(C)(C)N1[O]", "note": "(stereo not shown) [5-DOX, 5-doxyl stearate]", "values": [{"measurement": "effect on magnitude of the agonist-induced change in fluorescence", "setting": "FM-β2AR [1]; 100 μM 5-DOX", "result": "no significant effect"}, {"measurement": "quenching of baseline fluorescence", "setting": "FM-β2AR [1]; 100 μM 5-DOX", "result": 12, "unit": "%"}, {"measurement": "quenching constant Ksv (nitroxide fatty acids)", "setting": "FM-β2AR [1]", "result": "1.4 ± 0.2", "unit": "mM⁻¹"}]}
{"smiles": "CCCCCCCCCCCCCCCC[N+](C)(C)C1CC(C)(C)N([O])C(C)(C)C1.[I-]", "note": "[CAT-16]", "values": [{"measurement": "effect on magnitude of the agonist-induced fluorescence change", "setting": "FM-β2AR [1]; 50 μM CAT-16", "result": "more than two fold"}, {"measurement": "quenching of baseline fluorescence", "setting": "FM-β2AR [1]; 50 μM CAT-16", "result": "~12", "unit": "%"}, {"measurement": "quenching constant Ksv (nitroxide fatty acids)", "setting": "FM-β2AR [1]", "result": "2.4 ± 0.1", "unit": "mM⁻¹"}]}
{"smiles": "CC(CCc1ccc(O)cc1)NCCc1ccc(O)c(O)c1", "note": "(stereo not shown) [DOB, dobutamine]", "values": [{"measurement": "FWHMLONG", "setting": "FM-β2AR [2]; [5]", "result": "0.4±0.4"}, {"measurement": "τLONG", "setting": "FM-β2AR [2]; [5]", "result": "4.38±0.01", "unit": "nsec"}, {"measurement": "FWHMSHORT", "setting": "FM-β2AR [2]; [6]", "result": "0.9±0.6"}, {"measurement": "τSHORT", "setting": "FM-β2AR [2]; [6]", "result": "1.78±0.01", "unit": "nsec"}, {"measurement": "τ1 (nsec)", "setting": "FM-β2AR [2]; [7]", "result": "4.36 ± 0.01", "unit": "nsec"}, {"measurement": "τ2 (nsec)", "setting": "FM-β2AR [2]; [7]", "result": "1.68 ± 0.3", "unit": "nsec"}, {"measurement": "α2", "setting": "FM-β2AR [2]; fit to discrete exponential functions, fractional contribution of τ2", "result": "0.07 ± 0.01"}, {"measurement": "change in FM-β2AR fluorescence", "setting": "FM-β2AR [3]", "result": "progressively smaller changes"}]}
{"smiles": "[I-].[K+]", "note": "[KI, potassium iodide]", "values": [{"measurement": "% of control ISO response", "setting": "FM-β2AR [4]", "result": "55.4±8.3", "unit": "%"}]}
{"smiles": "CNC[C@H](O)c1ccc(O)c(O)c1", "note": "[epinephrine]", "values": [{"measurement": "change in FM-β2AR fluorescence", "setting": "FM-β2AR [3]", "result": "progressively smaller changes"}]}
